Laboratory results reported in patent publication US20030153611A1, “1,3-Diarylprop-2-en-1-ones, compositions containing them and use thereof” (AVENTIS PHARMA S.A., priority 2001, published 2003).
pIC50: −log10 of the molar value. Structures can show the parent of a compound that is named as a salt.

Tests used:
[1] = test system: C51 murine adenocarcinoma; test: Assessment of the tumor necrosis in vivo; conditions: intravenous injection, 24 hours after treatment, female BALB/c mice
Text: Mice are bred by IFFA-CREDO (Domaine des Oncins, 69210 L'Arbresle, France) from a race obtained by Jackson Laboratories, Bar Harbor, Me., USA, or by Charles River France (76410 St Aubin les Elbeuf, France) from a race obtained by Charles River, USA. The mice initially weigh more than 18 g at the start of the test. They have free access to food (UAR reference 113, Villemoisson, 91160 Epinay sur Orge, France) and water.
The tumors used are currently transplanted in our laboratories. All these tumors are at the Frederick Cancer Research Facility (Frederick, Md., USA) in the frozen tumor deposit of the National Cancer Institute (NCl) or at the American Type Culture Collection (ATCC, Rockville, Md., USA).
The tumor transplantation techniques, the chemotherapy and the data analysis are presented in detail (Corbett et al. 1982a; Corbett et al., 1982b).
To summarize, the animals required for an experiment are assembled and implanted bilaterally on day 0 (zero).
The growth of the solid tumors develops freely up to the desired size. The mice are then treated by intravenous injection of a test compound in solution.
The sampling of tumors is usually (but not necessarily) carried out 24 hours after the treatment.
The mice are killed by […]. The implanted tumors, along with the skin covering them and the neighboring tissues, are collected and stored in 10% formaldehyde (v/v) (Carlo Erba, Val de Reuil, France).
The samples are then treated, sectioned, stained with hematoxylin, eosin and saffron yellow, and are then examined […]. The tumor necrosis (necrosis±degeneration) is assessed microscopically using a scale of magnitude from 0 to 5:
The values assigned to the tumor necrosis 24 hours after administration of the test compound correspond solely to a necrosis dependent on the product which may be differentiated with certainty from any existing necrosis arising from the experiment.
The necrosis due to the experiment was assessed on an untreated control.
The tumor model is a C51 murine adenocarcinoma. This colon tumor is a grade III mucous colon […]. It is maintained by serial subcutaneous passages every 18 days in female BALB/c mice. The experiments were carried out on female BALB/c mice.

Tubulin = molecular target: T1, Tubulin (Sus scrofa, UniProt P02550+P02554); test: Assessment of the inhibition of tubulin polymerization (turbidimetry); type: biochemical, pig; conditions: tubulin 10 μM, turbidity at 350 nm, 37° C.
T1 construct: Tubulin is purified from pig brains according to the published methods; from tissue; host or cells: pig brain
T1 sequence (P02550 whole entry): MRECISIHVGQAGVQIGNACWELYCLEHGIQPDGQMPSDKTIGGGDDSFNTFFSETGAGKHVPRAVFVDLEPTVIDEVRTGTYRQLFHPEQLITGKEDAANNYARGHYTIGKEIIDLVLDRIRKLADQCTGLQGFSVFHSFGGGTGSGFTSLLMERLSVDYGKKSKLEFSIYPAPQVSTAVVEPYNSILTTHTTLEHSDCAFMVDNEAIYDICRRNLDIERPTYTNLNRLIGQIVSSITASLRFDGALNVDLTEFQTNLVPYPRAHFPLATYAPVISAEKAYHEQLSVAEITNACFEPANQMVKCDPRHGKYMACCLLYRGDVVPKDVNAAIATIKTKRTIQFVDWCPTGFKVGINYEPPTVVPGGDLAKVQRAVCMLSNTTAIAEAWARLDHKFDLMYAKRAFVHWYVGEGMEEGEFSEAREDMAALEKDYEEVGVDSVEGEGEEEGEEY
T1 sequence (P02554 whole entry): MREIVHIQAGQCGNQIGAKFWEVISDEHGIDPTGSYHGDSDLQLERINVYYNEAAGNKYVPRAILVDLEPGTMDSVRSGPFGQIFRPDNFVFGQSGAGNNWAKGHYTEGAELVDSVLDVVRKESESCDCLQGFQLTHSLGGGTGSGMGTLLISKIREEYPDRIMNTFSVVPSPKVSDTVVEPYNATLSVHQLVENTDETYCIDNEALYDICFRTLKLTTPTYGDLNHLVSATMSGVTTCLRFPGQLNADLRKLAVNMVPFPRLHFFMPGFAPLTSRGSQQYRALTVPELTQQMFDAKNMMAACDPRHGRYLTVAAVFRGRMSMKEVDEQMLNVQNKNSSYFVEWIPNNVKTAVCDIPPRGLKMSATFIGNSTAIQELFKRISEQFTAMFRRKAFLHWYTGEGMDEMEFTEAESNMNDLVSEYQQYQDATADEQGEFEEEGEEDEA
Description: Tubulin is purified from pig brains according to the published methods (Shelanski et al., 1973, Proc. Natl, Acad. Sci. USA, 70, 765-768. Weingarten et al., 1975, Proc. Natl, Acad. Sci. USA, 72, 1858-1862). Briefly, the brains are ground and centrifuged in an extraction buffer. The tubulin, contained in the extract supernatant, is subjected to two successive cycles of polymerization at 37° C. and depolymerization at 4° C., before being separated from the MAPs (Microtubule Associated Proteins) by chromatography on a phosphocellulose P11 column (Whatman). The tubulin thus isolated is more than 95% pure. It is stored in a buffer known as RB/2 30% glycerol, the composition of which is MES-NaOH [2-(N-morpholino)ethanesulfonic acid] 50 mM, pH 6.8; MgCl2 0.25 mM; EGTA 0.5 mM; 30% glycerol (v/v), GTP (guanosine 5′-triphosphate) 0.2 mM.
The polymerization of the tubulin into microtubules is monitored by turbidimetry as follows; the tubulin is adjusted to a concentration of 10 μM (1 mg/ml) in the RB/2 30% glycerol buffer, to which is added 1 mM GTP and 6 mM MgCl2. The polymerization is initiated by increasing the temperature from 6° C. to 37° C. in a cuvette with a 1 cm optical pathlength, placed in a Uvikon 931 spectrophotometer (Kontron) equipped with a thermostatically-regulated cuvette holder. The increase in the turbidity of the solution is monitored at 350 nm.
The products are dissolved at 10 mM in DMSO and added at variable concentrations (0.5 to 10 μM) to the tubulin solution before polymerization. The IC50 value is defined as the concentration of product which inhibits 50% of the rate of polymerization. A product whose IC50 value is less than or equal to 3 μM is considered as very active.

HDMEC = test: Inhibition of cell proliferation, HDMEC; type: cell-based; conditions: Homo sapiens

| pIC50 (Tubulin) | Structure (SMILES) | C51 colon tumor necrosis in vivo (grade) ([1]; 25 mg/kg) | pIC50 (HDMEC) | C51 colon tumor necrosis in vivo (grade) ([1]; 12.5 mg/kg) |
| --- | --- | --- | --- | --- |
| 6.15 | COc1cc(C(=O)/C(C)=C/c2ccc3c(ccn3C)c2)cc(OC)c1OC [Example 5, E-2-Methyl-3-(1-methyl-1-H-indol-5-yl)-1-(3,4,5-trimethoxyphenyl)propenone] | Grade 5 at 25 (5=large, >75%) | 7.52 | – |
| 5.00 | COc1ccc(/C=C(\C)C(=O)c2cc(OC)c(OC)c(OC)c2)cc1NC(=O)[C@@H](N)CO [Example 13, (S)-2-Amino-3-hydroxypropanoic acid {2-methoxy-5-[2-methyl-3-oxo-3-(3,4,5-trimethoxyphenyl)propenyl]phenyl}amide hydrochloride] | – | 7.52 | Grade 5 at 12.5 (5=large, >75%) |
